Measured values: the NIST ThermoML archive (doi:10.1016/j.tca.2012.10.018)

How the values were obtained:
[1] = mn = molality of the nth substance listed, in mol/kg; settings: 101 kPa, Liquid; for speed of sound: Sing-around technique in a fixed-path interferometer; for mass density: Vibrating tube method
[2] = 101 kPa, Liquid; for speed of sound: Sing-around technique in a fixed-path interferometer; for mass density: Vibrating tube method

NCC(=O)NCC(=O)O [glycylglycine] + O
[1]
Settings	mass density, m1 = 0.01976 [kg/m3]	mass density, m1 = 0.03098 [kg/m3]	mass density, m1 = 0.06804 [kg/m3]	mass density, m1 = 0.08258 [kg/m3]	mass density, m1 = 0.1196 [kg/m3]	speed of sound, m1 = 0.01976 [m/s]	speed of sound, m1 = 0.03098 [m/s]	speed of sound, m1 = 0.06804 [m/s]	speed of sound, m1 = 0.08258 [m/s]	speed of sound, m1 = 0.1196 [m/s]
305.15 K	996.227	996.841	998.809	999.555	1001.4	1515	1515.8	1518.5	1519.5	1522.1
310.15 K	993.362	993.969	995.921	996.662	998.494	1524.9	1525.7	1528.1	1529.1	1531.5
315.15 K	992.463	993.064	994.996	995.732	997.528	1533.4	1534.1	1536.3	1537.2	1539.4

O [water]
[2]
Settings	mass density [kg/m3]	speed of sound [m/s]
305.15 K	995.132	1513.5
310.15 K	992.274	1523.5
315.15 K	991.385	1532.2

O [water] + CC(C)C[C@H](NC(=O)CN)C(=O)O
[1], m2 = 0
Settings	mass density [kg/m3]	speed of sound [m/s]
305.15 K	995.132	1513.5
310.15 K	992.274	1523.5
315.15 K	991.385	1532.2

O [water] + NCC(=O)NCC(=O)O
[1], m2 = 0
Settings	mass density [kg/m3]	speed of sound [m/s]
305.15 K	995.132	1513.5
310.15 K	992.274	1523.5
315.15 K	991.385	1532.2

O [water] + NCC(=O)O
[1], m2 = 0
Settings	mass density [kg/m3]	speed of sound [m/s]
305.15 K	995.132	1513.5
310.15 K	992.274	1523.5
315.15 K	991.385	1532.2
